These results are taken from PubChem BioAssay AID248 (DTP/NCI, 2004).

Inconclusive results and toxic doses are left out.

In this assay the test system is L1210 leukemia ip in BDF1 mice, survival T/C. Description: NCI In Vivo Anticancer Drug Screen. Data for tumor model L1210 Leukemia (intraperitoneal) in B6D2F1 (BDF1) mice. As to conditions: endpoint: mean survival time, higher = longer survival. An outline of the steps:
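Transplanted-tumor mice were given test agent; controls received vehicle only. Survival readings from the two groups were divided (treated over control).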

The mark [1] stands for this setting: dose: 100.0 mg/kg/injection, schedule: Q01DX009 (ip), vehicle: saline with Tween-80.
[2] abbreviates: dose: 100.0 mg/kg/injection, schedule: Q04DX003 (ip), vehicle: saline with Tween-80.
[3] abbreviates: dose: 200.0 mg/kg/injection, schedule: Q01DX009 (ip), vehicle: saline with Tween-80.
[4] abbreviates: dose: 200.0 mg/kg/injection, schedule: Q04DX003 (ip), vehicle: saline with Tween-80.
Where [5] appears, read: dose: 400.0 mg/kg/injection, schedule: Q01DX009 (ip), vehicle: saline with Tween-80.
Where [6] appears, read: dose: 400.0 mg/kg/injection, schedule: Q04DX003 (ip), vehicle: saline with Tween-80.
Setting [7] is: dose: 6.25 mg/kg/injection, schedule: Q01DX009 (ip), vehicle: saline.
[8] abbreviates: dose: 50.0 mg/kg/injection, schedule: Q01DX009 (ip), vehicle: saline.
[9] abbreviates: dose: 100.0 mg/kg/injection, schedule: Q01DX001 (ip), vehicle: saline.
[10] abbreviates: dose: 100.0 mg/kg/injection, schedule: Q01DX009 (ip), vehicle: other.
[11] abbreviates: dose: 100.0 mg/kg/injection, schedule: Q01DX009 (ip), vehicle: saline.
The mark [12] stands for this setting: dose: 200.0 mg/kg/injection, schedule: Q01DX009 (ip), vehicle: other.

Turning to `COC(OC)c1[nH]c(=S)[nH]c(=O)c1Cc1cc([N+](=O)[O-])ccc1O`, the T/C was 100 % of control under setting [1]; 101 % of control under setting [2]; 91 % of control under setting [3]; 97 % of control under setting [4]; 93 % of control under setting [5]; 94 % of control under setting [6].

With `COC(C)=C1c2ccccc2-c2ccccc21`, the T/C by setting is: (dose: 100.0 mg/kg/injection, schedule: Q01DX001 (ip), vehicle: Klucel (hydroxypropylcellulose) (HPC)) 98 % of control; (dose: 200.0 mg/kg/injection, schedule: Q01DX001 (ip), vehicle: Klucel (hydroxypropylcellulose) (HPC)) 99 % of control; (dose: 400.0 mg/kg/injection, schedule: Q01DX001 (ip), vehicle: Klucel (hydroxypropylcellulose) (HPC)) 94 % of control.

For `Nc1nc(N)c2cc(CNc3ccc(C(=O)NC(CC(=O)O)CC(=O)O)cc3)ccc2n1`, the T/C is, setting by setting: under setting [7], 123 % of control; (dose: 6.3 mg/kg/injection, schedule: Q01DX009 (ip), vehicle: carboxymethylcellulose (CMC)) 167 % of control; (dose: 10.0 mg/kg/injection, schedule: Q01DX009 (ip), vehicle: other) 157 % of control; (dose: 12.5 mg/kg/injection, schedule: Q01DX009 (ip), vehicle: carboxymethylcellulose (CMC)) 152 % of control; (dose: 25.0 mg/kg/injection, schedule: Q01DX009 (ip), vehicle: carboxymethylcellulose (CMC)) 180 % of control; (dose: 25.0 mg/kg/injection, schedule: Q01DX009 (ip), vehicle: other) 158 % of control. Moreover, the T/C (dose: 50.0 mg/kg/injection, schedule: Q01DX001 (ip), vehicle: saline) is 109 % of control; the T/C (dose: 50.0 mg/kg/injection, schedule: Q01DX009 (ip), vehicle: carboxymethylcellulose (CMC)) is 117 % of control; the T/C under setting [8] is 216 % of control; the T/C (dose: 100.0 mg/kg/injection, schedule: Q01DX001 (ip), vehicle: other) is 196 % of control; the T/C under setting [9] is 114 % of control; the T/C (dose: 100.0 mg/kg/injection, schedule: Q01DX009 (ip), vehicle: carboxymethylcellulose (CMC)) is 105 % of control. Further, the T/C is, setting by setting: under setting [10], 101 % of control; under setting [11], 103 % of control; (dose: 133.0 mg/kg/injection, schedule: Q01DX001 (ip), vehicle: other) 175 % of control; (dose: 200.0 mg/kg/injection, schedule: Q01DX001 (ip), vehicle: other) 208 % of control; (dose: 200.0 mg/kg/injection, schedule: Q01DX009 (ip), vehicle: carboxymethylcellulose (CMC)) 88 % of control; under setting [12], 86 % of control. In addition, the T/C is 97 % of control (dose: 200.0 mg/kg/injection, schedule: Q01DX009 (ip), vehicle: saline); 166 % of control (dose: 300.0 mg/kg/injection, schedule: Q01DX001 (ip), vehicle: other); 122 % of control (dose: 300.0 mg/kg/injection, schedule: Q01DX001 (ip), vehicle: saline); 107 % of control (dose: 400.0 mg/kg/injection, schedule: Q01DX001 (ip), vehicle: other); 152 % of control (dose: 600.0 mg/kg/injection, schedule: Q01DX001 (ip), vehicle: saline).

`CCCCC(CC)CNC1CCCCC1` (configuration not stated): the T/C (dose: 75.0 mg/kg/injection, schedule: Q01DX009 (ip), vehicle: Klucel (hydroxypropylcellulose) (HPC)) was 98 % of control; the T/C (dose: 100.0 mg/kg/injection, schedule: Q04DX002 (ip), vehicle: Klucel (hydroxypropylcellulose) (HPC)) is 101 % of control; the T/C (dose: 150.0 mg/kg/injection, schedule: Q01DX009 (ip), vehicle: Klucel (hydroxypropylcellulose) (HPC)) was 101 % of control; the T/C (dose: 200.0 mg/kg/injection, schedule: Q04DX002 (ip), vehicle: Klucel (hydroxypropylcellulose) (HPC)) was 97 % of control.

Regarding `CCCCCCCC(=O)Nc1c(C)cc(C)cc1C`, the T/C is 95 % of control under setting [2], 92 % of control under setting [4] and 93 % of control under setting [6].

As for `CC(=O)N=C1CCCC1C#N` (configuration not stated), the T/C by setting is: (dose: 100.0 mg/kg/injection, schedule: Q01DX009 (ip), vehicle: Klucel (hydroxypropylcellulose) (HPC)) 101 % of control; (dose: 100.0 mg/kg/injection, schedule: Q04DX003 (ip), vehicle: saline) 105 % of control; (dose: 200.0 mg/kg/injection, schedule: Q01DX009 (ip), vehicle: Klucel (hydroxypropylcellulose) (HPC)) 101 % of control; (dose: 200.0 mg/kg/injection, schedule: Q04DX003 (ip), vehicle: saline) 109 % of control; (dose: 400.0 mg/kg/injection, schedule: Q01DX009 (ip), vehicle: Klucel (hydroxypropylcellulose) (HPC)) 95 % of control; (dose: 400.0 mg/kg/injection, schedule: Q04DX003 (ip), vehicle: saline) 100 % of control.

For the molecule `O=c1[nH]nnc2ccccc12`, the T/C is, setting by setting: under setting [8], 90 % of control; under setting [11], 90 % of control; (dose: 100.0 mg/kg/injection, schedule: Q04DX003 (ip), vehicle: alcohol) 98 % of control; (dose: 200.0 mg/kg/injection, schedule: Q04DX003 (ip), vehicle: alcohol) 100 % of control.

On to `CN(N=Nc1ccccc1C(=O)NN)C1CCCCC1`, for which the T/C is 117 % of control under setting [10] and 114 % of control under setting [12].

For the molecule `NC(=O)OCC(CO)(c1ccccc1)c1ccccc1`, the T/C (dose: 5.0 mg/kg/injection, schedule: Q01DX001 (ip), vehicle: saline) was 98 % of control; the T/C (dose: 10.0 mg/kg/injection, schedule: Q01DX001 (ip), vehicle: saline) is 93 % of control; the T/C (dose: 20.0 mg/kg/injection, schedule: Q01DX001 (ip), vehicle: saline) is 102 % of control; the T/C (dose: 40.0 mg/kg/injection, schedule: Q01DX001 (ip), vehicle: saline) was 102 % of control; the T/C (dose: 80.0 mg/kg/injection, schedule: Q01DX001 (ip), vehicle: saline) was 98 % of control.

For the molecule `Cn1cc(/C=C\C(=O)O)c2nccnc21`, the T/C is, setting by setting: (dose: 37.5 mg/kg/injection, schedule: Q01DX009 (ip), vehicle: water) 95 % of control; (dose: 50.0 mg/kg/injection, schedule: Q01DX009 (ip), vehicle: water) 100 % of control; (dose: 75.0 mg/kg/injection, schedule: Q01DX009 (ip), vehicle: water) 105 % of control; (dose: 100.0 mg/kg/injection, schedule: Q01DX009 (ip), vehicle: water) 89 % of control; (dose: 100.0 mg/kg/injection, schedule: Q04DX003 (ip), vehicle: water) 108 % of control; (dose: 150.0 mg/kg/injection, schedule: Q01DX009 (ip), vehicle: water) 89 % of control. For the same molecule, the T/C is 91 % of control (dose: 200.0 mg/kg/injection, schedule: Q01DX009 (ip), vehicle: water); 106 % of control (dose: 200.0 mg/kg/injection, schedule: Q04DX003 (ip), vehicle: water); 91 % of control (dose: 300.0 mg/kg/injection, schedule: Q01DX009 (ip), vehicle: water).

For the molecule `OC1C2CC3C1C3C2O` (configuration not stated), the T/C is 94 % of control under setting [1], 94 % of control under setting [3] and 97 % of control under setting [5].

Take `Cc1cc(Cl)cc(CN(C)Cc2c(C)[nH]c(=O)[nH]c2=O)c1O`: the T/C is, setting by setting: (dose: 100.0 mg/kg/injection, schedule: Q01DX001 (ip), vehicle: carboxymethylcellulose (CMC)) 97 % of control; (dose: 200.0 mg/kg/injection, schedule: Q01DX001 (ip), vehicle: carboxymethylcellulose (CMC)) 94 % of control; (dose: 400.0 mg/kg/injection, schedule: Q01DX001 (ip), vehicle: carboxymethylcellulose (CMC)) 97 % of control.

Consider `O=CN(O)CC(=O)O.[Zn]`, for which the T/C runs as follows: under setting [7], 105 % of control; (dose: 12.5 mg/kg/injection, schedule: Q01DX009 (ip), vehicle: saline) 100 % of control; (dose: 25.0 mg/kg/injection, schedule: Q01DX009 (ip), vehicle: saline) 120 % of control.

Regarding `CCSC(=O)OCn1ncc2cc([N+](=O)[O-])ccc21`, the T/C is, setting by setting: under setting [9], 112 % of control; (dose: 200.0 mg/kg/injection, schedule: Q01DX001 (ip), vehicle: saline) 91 % of control; (dose: 400.0 mg/kg/injection, schedule: Q01DX001 (ip), vehicle: saline) 103 % of control.
